The record followed here is US10047078B2, “Aminothiazole compounds” (National Health Research Institutes, priority 2016, dated 2018).

The target in one data set is ABL1 (Homo sapiens, UniProt P00519). Kind of data set: SelectScreen biochemical kinase profiling. The class given is binding. The settings on record: 100 nM, read-out: Inhibition (% of control) at 100 nM. How it is done:
(§1) Kinase inhibition data were obtained from SelectScreen® Biochemical Kinase Profiling Service.
(§2) More specifically, test compounds were screened in 160 nL of a 1% DMSO solution in the well of a 384-well plate; kinase/antibody mixtures (8 μL) were diluted to a 2-fold working concentration in an appropriate kinase buffer (3.84 μL) and a 4-fold AlexaFluor® labeled tracer (4 μL) was prepared in the kinase buffer; incubation of test solutions was conducted at room is temperature for 60 minutes; and readout on a fluorescence plate reader was recorded and analyzed.

For the next data set, the target named is ABL1 T315I (Homo sapiens, UniProt P00519, T315I). Put plainly: SelectScreen biochemical kinase profiling. The settings on record: 100 nM, read-out: Inhibition (% of control) at 100 nM. Format: binding. How it is done:
as §1, §2

In a further data set the target is KIT (Homo sapiens, UniProt P10721). Put plainly: SelectScreen biochemical kinase profiling. The class given is binding. How it is done: as §1, §2
Chain of KIT (P10721 26-976): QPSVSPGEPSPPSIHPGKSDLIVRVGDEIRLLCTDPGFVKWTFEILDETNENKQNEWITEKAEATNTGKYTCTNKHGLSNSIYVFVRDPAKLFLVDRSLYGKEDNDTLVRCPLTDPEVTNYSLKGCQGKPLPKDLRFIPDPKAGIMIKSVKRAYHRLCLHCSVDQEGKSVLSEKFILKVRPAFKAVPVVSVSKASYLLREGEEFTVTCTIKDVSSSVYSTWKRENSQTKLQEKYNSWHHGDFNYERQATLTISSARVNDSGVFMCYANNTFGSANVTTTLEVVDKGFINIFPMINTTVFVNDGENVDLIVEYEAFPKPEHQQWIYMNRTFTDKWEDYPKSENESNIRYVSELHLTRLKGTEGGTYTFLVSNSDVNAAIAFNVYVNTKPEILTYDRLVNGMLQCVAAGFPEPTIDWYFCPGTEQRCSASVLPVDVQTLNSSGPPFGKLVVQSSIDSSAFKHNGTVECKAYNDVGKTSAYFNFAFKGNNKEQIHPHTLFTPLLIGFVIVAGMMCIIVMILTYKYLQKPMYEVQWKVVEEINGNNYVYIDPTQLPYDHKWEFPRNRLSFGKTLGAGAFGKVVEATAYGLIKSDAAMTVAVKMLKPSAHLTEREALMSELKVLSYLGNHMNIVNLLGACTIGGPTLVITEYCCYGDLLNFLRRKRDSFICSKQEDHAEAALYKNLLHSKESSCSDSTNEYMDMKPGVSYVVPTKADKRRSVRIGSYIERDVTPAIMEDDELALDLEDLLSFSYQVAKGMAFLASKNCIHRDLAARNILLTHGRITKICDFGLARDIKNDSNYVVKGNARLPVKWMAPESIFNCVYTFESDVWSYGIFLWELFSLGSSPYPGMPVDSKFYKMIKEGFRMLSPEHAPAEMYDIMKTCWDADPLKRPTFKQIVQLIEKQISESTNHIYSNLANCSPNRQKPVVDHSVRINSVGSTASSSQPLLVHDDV
The target in the next data set is PDGFR A (Homo sapiens, UniProt P16234). Put plainly: SelectScreen biochemical kinase profiling. The class given is binding. How it is done:
as §1, §2

The target in a further data set is PDGFR B (Homo sapiens, UniProt P09619). Kind of data set: SelectScreen biochemical kinase profiling. The class given is binding. How it is done: as §1, §2
Chain of PDGFR B (P09619 33-1106): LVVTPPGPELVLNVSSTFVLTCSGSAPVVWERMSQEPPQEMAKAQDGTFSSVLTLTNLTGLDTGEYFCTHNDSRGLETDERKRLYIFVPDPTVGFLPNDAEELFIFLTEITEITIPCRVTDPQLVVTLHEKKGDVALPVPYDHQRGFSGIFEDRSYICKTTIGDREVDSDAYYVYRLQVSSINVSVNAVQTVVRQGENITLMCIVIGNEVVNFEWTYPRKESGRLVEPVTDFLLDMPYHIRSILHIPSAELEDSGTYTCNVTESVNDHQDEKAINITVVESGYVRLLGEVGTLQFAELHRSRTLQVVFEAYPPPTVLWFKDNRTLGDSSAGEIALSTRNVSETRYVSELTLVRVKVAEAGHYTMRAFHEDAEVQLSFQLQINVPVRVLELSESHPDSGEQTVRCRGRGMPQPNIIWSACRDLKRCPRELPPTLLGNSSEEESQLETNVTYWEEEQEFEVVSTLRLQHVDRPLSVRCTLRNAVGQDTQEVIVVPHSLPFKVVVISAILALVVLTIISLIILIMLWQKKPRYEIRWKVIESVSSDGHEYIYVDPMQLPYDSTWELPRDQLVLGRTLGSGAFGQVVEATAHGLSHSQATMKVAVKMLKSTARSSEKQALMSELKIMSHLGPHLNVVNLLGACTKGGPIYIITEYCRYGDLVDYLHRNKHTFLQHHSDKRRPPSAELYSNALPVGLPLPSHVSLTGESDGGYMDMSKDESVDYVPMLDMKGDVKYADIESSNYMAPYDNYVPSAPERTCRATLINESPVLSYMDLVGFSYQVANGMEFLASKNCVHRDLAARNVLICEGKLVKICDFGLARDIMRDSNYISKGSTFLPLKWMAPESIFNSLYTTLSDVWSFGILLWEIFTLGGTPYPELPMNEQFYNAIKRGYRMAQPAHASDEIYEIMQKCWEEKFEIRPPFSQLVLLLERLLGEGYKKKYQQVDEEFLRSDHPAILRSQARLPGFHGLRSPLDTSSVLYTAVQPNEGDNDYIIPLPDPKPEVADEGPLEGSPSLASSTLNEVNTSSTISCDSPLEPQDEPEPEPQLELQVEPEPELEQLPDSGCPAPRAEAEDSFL
The target in a further data set is RET (Homo sapiens, UniProt P07949). Kind of data set: SelectScreen biochemical kinase profiling. The class given is binding. The settings on record: 100 nM, read-out: Inhibition (% of control) at 100 nM. How it is done:
as §1, §2

Another data set has as its target SRC (Homo sapiens, UniProt P12931). Kind of data set: SelectScreen biochemical kinase profiling. The class given is binding. How it is done: as §1, §2
In the next data set the target is VEGFR2 (Homo sapiens, UniProt P35968). Kind of data set: SelectScreen biochemical kinase profiling. The class given is binding. How it is done:
as §1, §2

The subject of a further data set is 32D-ITD/D835F cells. Put plainly: MTS cell viability, 32D cells expressing FLT3-ITD mutant. The class given is cell-based, Murine. The settings on record: 72-h incubation. From the text:
(§3) The five leukemic 32D cell lines were purchased from American Type Culture Collection (ATCC, Manassas, Va., USA). Murine pro-B lymphocyte 32D cell lines were stably transfected with expression vectors that encoded human FLT3 containing an ITD mutation (32D-ITD cells), ITD and D835Y (32D-ITD/D835Y cells), ITD and D835V (32D-ITD/D835V cells), ITD and D835F (32D-ITD/D835F cells), and ITD and F691L (32D-ITD/F691L cells) mutations, which lead to constitutive activation of the FLT3 downstream signaling proteins. The cell viability was assessed with the MTS assay described in PLoS One, 2014, 9, e97116. 32D-ITD/D835Y, 32D-ITD/D835V, 32D-ITD/D835F, 32D-ITD/F691L, and 32D-ITD/F691I cells were seeded in 96-well plates at 1×10^4 cells/mL (100 μL per well) for 24-h incubation. Test compounds (at various concentrations in dimethyl sulfoxide (DMSO) were subsequently added to the culture medium for 72-h incubation. The cell viability was determined by the MTS assay (Promega, Madison, Wis., USA).

The subject of another data set is 32D-ITD/F691I cells. The data set is described as above. The settings on record: Mus musculus, 32D, 72 h, 72-h incubation. The class given is cell-based, Murine.
Source text: as §3

The next data set concerns 32D-ITD/F691L cells. Described as above. The settings on record: Mus musculus, 32D, 72 h, 72-h incubation. The class given is cell-based, Murine.
Source text: as §3

The next data set concerns Colo205 xenografts. Put plainly: Xenograft efficacy, Colo205 model. Format: in vivo. The note with it: Colo205 xenografts in nude mice; PO 50 mg/kg, 5 times a week for 2 weeks; 50 mg/kg. How it is done:
(§4) Male nude mice (Nu-Fox1^nu) of 8 weeks old were purchased from BioLASCO (Taipei, Taiwan, R.O.C.). Human colorectal Colo205, pancreatic Mia-PaCa 2 tumor cells or MOLM-13, 32D-ITD/D835Y leukemia cells were inoculated subcutaneously at 1×10^6 cells each in the nude mice. All human cancer cells were detected as free of Mycoplasma spp before they were injected into animals. The tumor cells grow as xenograft tumors and the tumor size reached approximately 200-250 mm^3 in the nude mice ready for dose treatments. Test compounds were dissolved in 20% 2-hydroxypropy-β-cyclodextrin individually for oral gavage administrations to the nude mice. The tumor-bearing mice were treated with test compounds at various doses, 5 times a week for 2 weeks. Tumor sizes were measured by an electronic caliper and calculated with the formula: tumor size=length×width^2/2. Tumor size and animal body weight were measured twice a week before and after the tumor cell inoculation throughout the observation period. Uses of animals and experimental procedures thereof were approved by the Institutional Animal Care and Use Committee (IACUC) of the National Health Research Institutes.

The test system of data set [1] is xenografts colo205 nude mice. Put plainly: In vivo toxicity study, colo205 model. How it is done: as §4, with “All human cancer cells were detected as free of Mycoplasma spp before they were injected into animals.” left out
Nine weeks old athymic nu/nu nude mice were administered orally at a once daily dose of 25, 50, 100, or 150 mg/kg on days 1-5 and 8-12.

Where [2] appears, read: 100 nM, read-out: Inhibition (% of control) at 100 nM.
[3] abbreviates: read-out: IC50 value (number in the bracket).

Some results are limits rather than exact numbers.

Chain of PDGFR A (P16234 24-1089): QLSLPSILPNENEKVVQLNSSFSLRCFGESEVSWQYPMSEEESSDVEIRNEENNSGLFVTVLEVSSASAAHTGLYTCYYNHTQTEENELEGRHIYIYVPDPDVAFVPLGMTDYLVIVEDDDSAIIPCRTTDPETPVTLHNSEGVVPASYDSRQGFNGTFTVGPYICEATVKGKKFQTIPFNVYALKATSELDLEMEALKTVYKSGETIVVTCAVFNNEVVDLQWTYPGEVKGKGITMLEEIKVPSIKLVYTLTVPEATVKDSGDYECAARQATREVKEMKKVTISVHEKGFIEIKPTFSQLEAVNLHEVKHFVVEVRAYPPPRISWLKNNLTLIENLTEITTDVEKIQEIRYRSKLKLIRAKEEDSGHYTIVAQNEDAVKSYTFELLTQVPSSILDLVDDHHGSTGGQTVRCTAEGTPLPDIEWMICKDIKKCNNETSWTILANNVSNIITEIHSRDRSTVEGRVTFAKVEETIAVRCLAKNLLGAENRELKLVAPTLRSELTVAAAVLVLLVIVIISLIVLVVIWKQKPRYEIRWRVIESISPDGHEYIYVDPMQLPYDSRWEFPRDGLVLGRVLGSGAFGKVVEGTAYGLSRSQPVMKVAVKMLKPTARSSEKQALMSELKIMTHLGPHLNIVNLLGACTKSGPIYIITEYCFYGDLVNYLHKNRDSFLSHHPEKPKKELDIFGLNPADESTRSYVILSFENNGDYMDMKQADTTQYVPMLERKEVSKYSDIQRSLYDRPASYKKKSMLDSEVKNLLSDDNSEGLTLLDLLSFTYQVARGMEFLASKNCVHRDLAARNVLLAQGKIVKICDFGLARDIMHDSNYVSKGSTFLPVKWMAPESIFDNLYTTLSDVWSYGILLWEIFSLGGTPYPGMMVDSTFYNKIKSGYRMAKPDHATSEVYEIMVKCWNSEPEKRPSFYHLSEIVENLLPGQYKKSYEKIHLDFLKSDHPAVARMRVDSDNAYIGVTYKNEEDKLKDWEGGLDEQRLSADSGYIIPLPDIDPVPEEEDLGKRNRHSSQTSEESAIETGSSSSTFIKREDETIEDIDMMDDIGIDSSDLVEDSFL
Chain of SRC (P12931 whole entry): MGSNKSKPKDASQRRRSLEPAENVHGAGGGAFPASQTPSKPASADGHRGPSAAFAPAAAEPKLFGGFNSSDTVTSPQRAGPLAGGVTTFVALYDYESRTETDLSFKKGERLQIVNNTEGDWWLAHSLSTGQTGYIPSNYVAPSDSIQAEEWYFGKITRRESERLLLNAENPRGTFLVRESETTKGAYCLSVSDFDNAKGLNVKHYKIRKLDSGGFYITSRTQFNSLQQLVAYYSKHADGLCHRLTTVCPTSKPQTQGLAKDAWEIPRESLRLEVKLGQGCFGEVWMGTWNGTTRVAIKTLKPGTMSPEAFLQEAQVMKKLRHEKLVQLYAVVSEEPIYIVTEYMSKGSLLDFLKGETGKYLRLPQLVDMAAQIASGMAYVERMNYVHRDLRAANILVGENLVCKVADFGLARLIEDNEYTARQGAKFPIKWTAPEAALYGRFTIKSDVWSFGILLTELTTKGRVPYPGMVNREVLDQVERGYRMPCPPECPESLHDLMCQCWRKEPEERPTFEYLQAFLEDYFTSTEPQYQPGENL
Chain of VEGFR2 (P35968 20-1356): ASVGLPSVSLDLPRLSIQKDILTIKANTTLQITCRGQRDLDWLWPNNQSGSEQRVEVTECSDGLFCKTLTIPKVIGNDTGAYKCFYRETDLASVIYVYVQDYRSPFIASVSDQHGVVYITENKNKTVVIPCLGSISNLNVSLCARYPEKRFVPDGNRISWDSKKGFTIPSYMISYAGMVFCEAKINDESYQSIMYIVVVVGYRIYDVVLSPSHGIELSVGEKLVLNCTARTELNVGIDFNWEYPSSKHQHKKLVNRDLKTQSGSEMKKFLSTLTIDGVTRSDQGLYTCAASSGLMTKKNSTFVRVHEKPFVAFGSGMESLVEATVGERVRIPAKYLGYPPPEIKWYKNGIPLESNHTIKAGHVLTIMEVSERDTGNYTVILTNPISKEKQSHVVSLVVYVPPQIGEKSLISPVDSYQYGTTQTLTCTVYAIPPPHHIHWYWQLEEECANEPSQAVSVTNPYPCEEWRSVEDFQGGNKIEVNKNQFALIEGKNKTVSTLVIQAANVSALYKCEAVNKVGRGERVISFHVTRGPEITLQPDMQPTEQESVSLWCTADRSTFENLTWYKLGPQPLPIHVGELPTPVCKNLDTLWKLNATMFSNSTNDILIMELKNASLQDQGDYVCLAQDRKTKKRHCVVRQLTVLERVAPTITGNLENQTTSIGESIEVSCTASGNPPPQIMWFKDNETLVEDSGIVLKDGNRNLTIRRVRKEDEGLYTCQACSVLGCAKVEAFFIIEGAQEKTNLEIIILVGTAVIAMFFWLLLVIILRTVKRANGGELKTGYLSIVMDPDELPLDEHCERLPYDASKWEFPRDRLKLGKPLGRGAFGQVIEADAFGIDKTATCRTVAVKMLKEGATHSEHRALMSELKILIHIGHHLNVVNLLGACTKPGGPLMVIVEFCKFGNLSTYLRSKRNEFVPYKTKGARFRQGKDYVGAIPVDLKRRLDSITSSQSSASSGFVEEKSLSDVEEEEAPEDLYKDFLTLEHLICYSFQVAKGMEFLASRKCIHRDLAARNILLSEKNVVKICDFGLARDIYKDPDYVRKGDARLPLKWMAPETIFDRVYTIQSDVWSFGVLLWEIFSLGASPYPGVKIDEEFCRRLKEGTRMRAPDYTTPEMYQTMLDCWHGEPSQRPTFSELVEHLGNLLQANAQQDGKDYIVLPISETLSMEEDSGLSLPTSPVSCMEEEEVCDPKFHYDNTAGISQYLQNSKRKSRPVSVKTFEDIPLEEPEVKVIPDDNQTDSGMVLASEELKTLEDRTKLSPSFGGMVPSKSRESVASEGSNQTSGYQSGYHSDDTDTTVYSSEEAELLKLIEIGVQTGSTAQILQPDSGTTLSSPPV

As to `CCc1cc(NC(=O)Nc2ccc(-c3cnc(Nc4cc(N5CCN(CCO)CC5)nc(C)n4)s3)cc2)no1` [Compound 1, 1-(5-Ethylisoxazol-3-yl)-3-(4-(2-((6-(4-(2-hydroxyethyl)piperazin-1-yl)-2-methylpyrimidin-4-yl)amino)thiazol-5-yl)phenyl)urea], the inhibition – broadly, the relative decrease from the control value, in per cent – at 0.1 µM worked out at 81% on ABL1; 65% on ABL1 T315I; 66% on KIT (setting [2]); 95% at PDGFR A (setting [2]); 82% on PDGFR B (setting [2]); 96% at RET. In addition, the inhibition at 0.1 µM on SRC (setting [2]) stood at 96%; at VEGFR2 (setting [2]) it was 95%. Moreover, the IC50 (in general, the concentration at which inhibition is half-maximal) is 41 nM at KIT (setting [3]); 9 nM on PDGFR A (setting [3]); 19 nM at PDGFR B (setting [3]); 6 nM on SRC (setting [3]); 19 nM on VEGFR2 (setting [3]). Moreover, the GI50 – broadly, the concentration that inhibits growth by half – with 32D-ITD/D835F cells is 3.2 nM; with 32D-ITD/D835F cells (Mus musculus, 32D, 72 h), below 6 nM; with 32D-ITD/F691I cells it was 45 nM; with 32D-ITD/F691L cells, 8.5 nM. Moreover, the “Day 18 TGI” value in the data set with Colo205 xenografts was above 80%. In data set [1] (PO 50 mg/kg once daily, 5 on 2 off × 2), the “Mortality (nude mice n = 6)” value is reported as 0/6 (50 mg/kg). In data set [1] (PO once daily, Compounds 1, 2, 3, 4, 6 at 50, 50, 100, 150 and 25 mg/kg), the Tolerability result is given as “well tolerated”.
